From patent US20250353873A1, “COMPOUNDS AND METHODS FOR MODULATING APOE EXPRESSION” (Ionis Pharmaceuticals, Inc., priority 2024, published 2025)
pIC50: −log10 of the molar value. Values joined by “and” are separate entries in the source; they are usually repeats but may differ in a detail not shown here. Equal entries are not always repeated. Strand notation (5' to 3'): a small letter for the sugar, then the base; units joined by * are phosphorothioate-linked, units joined directly phosphodiester-linked; [ ] holds rarer units or linkages, { } end groups; capitals alone tell only the bases. [PN] = cyclic guanidine phosphoramidate internucleoside linkage; [ms] = mesyl phosphoramidate linkage; e = 2'-O-(2-methoxyethyl) (MOE); k = constrained ethyl (cEt); [5mC] = 5-methylcytosine; d = 2'-deoxy (DNA)

Columns and labels:
[1] = test system: human APOE RNA; assay: Dose-dependent inhibition of human APOE RNA in HepG2 cells, electroporation, 50,000 cells per well, RT-PCR normalized to GAPDH (Example 4, Tables 8-10); assay type: cell-based; settings: HepG2, electroporation, 24-hour treatment
Summary of the method: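 Readout is percent APOE RNA versus untreated controls, measured by RT-PCR (primer probe set RTS3073) and normalized to human GAPDH. Modified oligonucleotides were delivered by electroporation at varying doses into HepG2 cells plated at 50,000 per well.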

[2] = test system: human APOE RNA; assay: Activity in APOE C57BL/6NTac-Apoeem7250 knock-in mice, single ICV bolus, 4 weeks (Example 10); assay type: in vivo; settings: single ICV bolus 300 μg, 4 weeks post treatment, normalized to mouse Ppia
Summary of the method: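 Human APOE RNA, quantified by real-time RT-PCR with RTS3073 and normalized to mouse Ppia, was read in cortical brain and spinal cord 4 weeks post dosing. Dosing was a single ICV bolus of 300 μg per knock-in mouse; values are % of PBS-treated animals.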

[3] = test system: human APOE RNA; assay: Duration of action study in APOE C57BL/6NTac-Apoeem7250 knock-in mice (Example 16); assay type: in vivo; settings: 300 μg ICV
Description: Modified oligonucleotides described above were tested in the APOE C57BL/6NTac-Apoeem7250 knock-in mouse model described above.
APOE C57BL/6NTac-Apoeem7250 knock-in mice were divided into groups of 2-4 mice each. Each mouse received a single intracerebroventricular (ICV) bolus of 300 μg of modified oligonucleotide. A group of 2-4 mice received a single ICV bolus with PBS as a negative control.
Mice were sacrificed at various timepoints as indicated in the table below and RNA was extracted from cortical brain tissue and spinal cord for quantitative real-time RT-PCR analysis of RNA expression of APOE using primer probe set RTS3073 (described herein above). APOE RNA levels were normalized to mouse Ppia. Mouse Ppia was amplified using primer probe set m_cyclo24 (described herein above). Results are presented as percent human APOE RNA relative to the amount of human APOE RNA in PBS treated animals, (% control). Each experiment is identified in separate tables below.

[4] = test system: human APOE RNA; assay: Activity in APOE C57BL/6NTac-Apoeem7250 knock-in mice, single ICV bolus, 8 weeks (Example 11); assay type: in vivo; settings: single ICV bolus 300 μg, 8 weeks post treatment, normalized to mouse Ppia
Summary of the method: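 Cortical and spinal cord human APOE RNA quantified by RT-qPCR 8 weeks after a single 300 μg ICV dose in knock-in mice, Ppia-normalized. Values are percent of levels in PBS-treated animals.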

[5] = test system: human APOE RNA; assay: Activity in APOE C57BL/6NTac-Apoeem7250 knock-in mice, single ICV bolus, 16 weeks (Example 12); assay type: in vivo; settings: single ICV bolus 300 μg, 16 weeks post treatment, normalized to mouse Ppia
Summary of the method: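 A single 300 μg intracerebroventricular dose was given, with PBS-treated mice as reference; cortical and spinal cord tissue was taken 16 weeks later. RT-qPCR quantified human APOE RNA, Ppia-normalized, expressed relative to PBS animals (% control).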

How did the “APOE RNA (% UTC)” value ([1]; 5 nM) turn out when “1746811 (k[5mC]*dT[ms]dT[ms]kG*kG*dT[ms]dG[ms]dA[ms]dA[ms]dT*d[5mC]*dT*dT*dT*dA[ms]dT*dT[ms]kA*kA*kA; antisense) [Compound 1746811]” was run?
Its value is 99 % UTC.

And the “APOE RNA (% UTC)” value ([1]; 13 nM)?
Its value is 86 % UTC.

And the “APOE RNA (% UTC)” value ([1]; 33 nM)?
Its value is 83 % UTC.

And the “APOE RNA (% UTC)” value ([1]; 82 nM)?
Its value is 95 % UTC.

What about the “APOE RNA (% UTC)” value ([1]; 205 nM) of the same substance?
The value was 70 % UTC.

And the “APOE RNA (% UTC)” value ([1]; 512 nM)?
Its value is 54 % UTC.

And the “APOE RNA (% UTC)” value ([1]; 1,280 nM)?
The value was 47 % UTC.

What about the “APOE RNA (% UTC)” value ([1]; 3,200 nM) of the same substance?
The value was 23 % UTC.

What about the “APOE RNA (% UTC)” value ([1]; 8,000 nM) of the same substance?
Its value is 12 % UTC.

What about the “APOE RNA (% UTC)” value ([1]; 20,000 nM) of the same substance?
The value was 5 % UTC.

And the pIC50 [1]?
The pIC50 was 6.13.

And the “APOE RNA (% control) Cortex” value ([2]; cortex)?
The value was 61 % control.

And the “APOE RNA (% control) Spinal Cord” value ([2]; spinal cord)?
The value was 62 % control.

What about the “APOE RNA (% control) Cortex” value ([3]; 112 days post-dose) of the same substance?
The value was 71 % control.

And the “APOE RNA (% control) Cortex” value ([3]; 140 days post-dose)?
The value was 89 % control.

And the “APOE RNA (% control) Spinal Cord” value ([3]; 112 days post-dose)?
The value was 95 % control.

What about the “APOE RNA (% control) Spinal Cord” value ([3]; 140 days post-dose) of the same substance?
The value was 103 % control.

“1721307: 6-10-4 MOE gapmer CTTGGTGAATCTTTATTAAA, linkages s[pn][pn][pn]oossssssssssoss (e[5mC]*eT[PN]eT[PN]eG[PN]eGeTdG*dA*dA*dT*d[5mC]*dT*dT*dT*dA*dT*eTeA*eA*eA) [compound 1721307]” was tested. Which “APOE RNA (% control) Cortex” value ([3]; 14 days post-dose) did it give?
Its value is 38 % control.

And the “APOE RNA (% control) Cortex” value ([3]; 112 days post-dose)?
Its value is 73 % control.

And the “APOE RNA (% control) Spinal Cord” value ([3]; 14 days post-dose)?
The value was 31 % control.

And the “APOE RNA (% control) Spinal Cord” value ([3]; 112 days post-dose)?
Its value is 34 % control.

How did the “APOE RNA (% control) Cortex” value ([4]; cortex) turn out when “1652901: 6-10-4 MOE gapmer TTGGTGAATCTTTATTAAAC, linkages sooooossssssssssoss (antisense eT*eTeGeGeTeGdA*dA*dT*d[5mC]*dT*dT*dT*dA*dT*dT*eAeA*eA*e[5mC]) [compound 1652901]” was run?
Its value is 47 % control and 49 % control.

And the “APOE RNA (% control) Spinal Cord” value ([4]; spinal cord)?
Its value is 18 % control and 27 % control.

And the “APOE RNA (% control) Cortex” value ([5]; cortex)?
The value was 104 % control.

And the “APOE RNA (% control) Spinal Cord” value ([5]; spinal cord)?
The value was 61 % control.

What about the “APOE RNA (% control) Cortex” value ([3]; 14 days post-dose) of the same substance?
The value was 43 % control.

And the “APOE RNA (% control) Cortex” value ([3]; 112 days post-dose)?
Its value is 90 % control.

And the “APOE RNA (% control) Spinal Cord” value ([3]; 14 days post-dose)?
Its value is 33 % control.

And the “APOE RNA (% control) Spinal Cord” value ([3]; 112 days post-dose)?
The value was 51 % control.

Which “APOE RNA (% control) Cortex” value ([3]; 14 days post-dose) does the source give for “1721303: 6-10-4 MOE gapmer TTGGTGAATCTTTATTAAAC, linkages s[pn][pn][pn]oossssssssssoss (eT*eT[PN]eG[PN]eG[PN]eTeGdA*dA*dT*d[5mC]*dT*dT*dT*dA*dT*dT*eAeA*eA*e[5mC]) [compound 1721303]” here?
Its value is 36 % control.

What about the “APOE RNA (% control) Cortex” value ([3]; 112 days post-dose) of the same substance?
Its value is 75 % control.

What about the “APOE RNA (% control) Spinal Cord” value ([3]; 14 days post-dose) of the same substance?
Its value is 32 % control.

What about the “APOE RNA (% control) Spinal Cord” value ([3]; 112 days post-dose) of the same substance?
Its value is 40 % control.

What does the source list for “1721305: 6-10-4 MOE gapmer TTGGTGAATCTTTATTAAAC, linkages s[pn][pn][pn]oossssssssss[pn]ss (eT*eT[PN]eG[PN]eG[PN]eTeGdA*dA*dT*d[5mC]*dT*dT*dT*dA*dT*dT*eA[PN]eA*eA*e[5mC]) [compound 1721305]”?
APOE RNA (% control) Cortex ([3]; 14 days post-dose): 52 % control; APOE RNA (% control) Cortex ([3]; 112 days post-dose): 81 % control; APOE RNA (% control) Spinal Cord ([3]; 14 days post-dose): 37 % control; APOE RNA (% control) Spinal Cord ([3]; 112 days post-dose): 40 % control
